Experimental data reported in patent US20160008277A1, “CO-PACKAGED DRUG PRODUCTS” (Lightlake Therapeutics Inc., priority 2014, published 2016).
Like-named read-outs stand apart in the source and are kept apart here.

Legend:
[1] = system: suspected opiate overdose; details: cited from earlier work
[2] = 400 μL, cited from earlier work
[3] = clinical; details: human, plasma

C=CCN1CC[C@]23c4c5ccc(O)c4O[C@H]2C(=O)CC[C@@]3(O)[C@H]1C5 [naloxone, 17-allyl-4,5a-epoxy-3,14-dihydroxymorphinan-6-one]
patients responding to IN naloxone alone ([1]; 2 mg IN, 43 of 52 patients who responded to naloxone by IN or IV): 83% | median time from administration of the IN naloxone to patient awakening ([1]; 2 mg IN): 3.0 min | median time from arrival at patient side to awakening ([1]; 2 mg IN): 8.0 min | patients requiring further doses of IV naloxone ([1]; among responders to 2 mg IN alone): 16% | mean Tmax ([2]; 8 mg IN): 20.4 min | mean Tmax ([2]; 16 mg IN): 23.4 min | Cmax ([3]; female, im, 0.4 mg, 0.4 mg IM): 1.06 ng/mL | Tmax ([3]; female, im, 0.4 mg, Tmax (median), 0.4 mg IM): 19.8 min | Tmax ([3]; female, other: intranasal (IN), 4 mg, Tmax (median), One 40 mg/mL IN, Female): 30 min | Tmax ([3]; female, other: intranasal (IN), 8 mg, Tmax (median), Two 40 mg/mL IN, Female): 17.4 min | Cmax ([3]; female, other: intranasal, 2 mg, One 20 mg/mL IN, Female): 2.79 ng/mL | Tmax ([3]; female, other: intranasal, 2 mg, Tmax (median), One 20 mg/mL IN, Female): 19.8 min | Cmax ([3]; female, other: intranasal, 4 mg, One 40 mg/mL IN, Female): 5.12 ng/mL | Cmax ([3]; female, other: intranasal, 4 mg, Two 20 mg/mL IN, Female): 6.62 ng/mL | Tmax ([3]; female, other: intranasal, 4 mg, Tmax (median), Two 20 mg/mL IN, Female): 19.8 min | Cmax ([3]; female, other: intranasal, 8 mg, Two 40 mg/mL IN, Female): 9.52 ng/mL | Cmax ([3]; im, 0.4 mg, mean (% CV), 0.4 mg IM): 0.906 ng/mL | Tmax ([3]; im, 0.4 mg, Tmax (median, range), 0.4 mg IM): 25.2 min | Cmax ([3]; other: intranasal, 2 mg, mean (% CV), One Spray - 2 mg 20 mg/mL IN): 3.11 ng/mL | Tmax ([3]; other: intranasal, 2 mg, Tmax (median, range), One Spray - 2 mg 20 mg/mL IN): 19.8 min | Cmax ([3]; other: intranasal, 4 mg, mean (% CV), One Spray - 4 mg 40 mg/mL IN): 5.34 ng/mL | Cmax ([3]; other: intranasal, 4 mg, mean (% CV), Two Sprays - 4 mg 20 mg/mL IN): 6.63 ng/mL | Tmax ([3]; other: intranasal, 4 mg, Tmax (median, range), One Spray - 4 mg 40 mg/mL IN): 30 min | Tmax ([3]; other: intranasal, 4 mg, Tmax (median, range), Two Sprays - 4 mg 20 mg/mL IN): 19.8 min | Cmax ([3]; other: intranasal, 8 mg, mean (% CV), Two Sprays - 8 mg 40 mg/mL IN): 10.3 ng/mL | Tmax ([3]; other: intranasal, 8 mg, Tmax (median, range), Two Sprays - 8 mg 40 mg/mL IN): 19.8 min | Cmax ([3]; male, im, 0.4 mg, 0.4 mg IM): 0.792 ng/mL | Tmax ([3]; male, im, 0.4 mg, Tmax (median), 0.4 mg IM): 30 min | Tmax ([3]; male, other: intranasal (IN), 4 mg, Tmax (median), One 40 mg/mL IN, Male): 30 min | Tmax ([3]; male, other: intranasal (IN), 8 mg, Tmax (median), Two 40 mg/mL IN, Male): 25.2 min | Cmax ([3]; male, other: intranasal, 2 mg, One 20 mg/mL IN, Male): 3.35 ng/mL | Tmax ([3]; male, other: intranasal, 2 mg, Tmax (median), One 20 mg/mL IN, Male): 19.8 min | Cmax ([3]; male, other: intranasal, 4 mg, One 40 mg/mL IN, Male): 5.51 ng/mL | Cmax ([3]; male, other: intranasal, 4 mg, Two 20 mg/mL IN, Male): 6.64 ng/mL | Tmax ([3]; male, other: intranasal, 4 mg, Tmax (median), Two 20 mg/mL IN, Male): 15 min | Cmax ([3]; male, other: intranasal, 8 mg, Two 40 mg/mL IN, Male): 10.9 ng/mL
